EP4786487A1, “PEPTIDE” (Peptidream Inc, priority 2023, dated 2025)
Starred links: 1 amine or outer side, 2 acyl side, 3 side chain; linkers in the order of their positions; H or OH if unused. Positions of bridges follow the written chain, without caps; N, C: chain ends. Non-standard residues stand in square brackets, D forms with d. Residues, ends and D or L forms follow the SMILES beside them. *: point of attachment. Phe(3-OCH2COOH) = N[C@@H](Cc1cccc(OCC(=O)O)c1)C(=O)O; Phe(4-COOH) = N[C@@H](Cc1ccc(C(=O)O)cc1)C(=O)O; Trp(7-aza) = N[C@@H](Cc1c[nH]c2ncccc12)C(=O)O; Gly(N(CH2)3COOH) = O=C(O)CCCNCC(=O)O; X1 = CCCCCCC[C@H](N[*:1])C(=O)[*:2]; NMeF = CN[C@@H](Cc1ccccc1)C(=O)O; Carboxymethyl = O=C(O)C*; NMeA = CN[C@@H](C)C(=O)O; Sar = CNCC(=O)O

Assays:
Assay type in all cases: cell-based
Myostatin [1] = molecular target: T1, Myostatin (Homo sapiens, UniProt O14793); assay: Reporter gene assay for myostatin signaling in HepG2 cell line, Evaluation Procedure (1), myostatin inhibition; settings: Method A: Myostatin 10 ng/mL; read-out: IC50 (Luciferase) Myostatin HepG2
T1 construct: active myostatin (also called mature myostatin) is a homodimer consisting of two C-terminal growth factor domains; purchased R&D systems 788-G8/CF
T1 sequence (O14793 267-375): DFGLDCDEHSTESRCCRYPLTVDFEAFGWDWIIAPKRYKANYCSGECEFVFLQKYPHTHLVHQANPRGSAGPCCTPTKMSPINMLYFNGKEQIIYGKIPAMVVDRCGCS
Method in brief: (§1)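 IC50 derived from One-Glo luciferase luminescence after 20–24 h at 37 °C. Peptides titrated 4-fold at 0.006–100 nmol/L against myostatin or 0.12–2000 nmol/L against GDF-11 in HepG2 cells carrying a transfected CAGA12-luciferase reporter, kept in 0.1% BSA EMEM.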

Myostatin [2] = assay: as above; settings: Method A; GDF-11 IC50 versus Myostatin IC50
Method in brief: as §1

GDF-11 = molecular target: T2, GDF-11 (Homo sapiens, UniProt O95390); assay: Reporter gene assay for myostatin signaling in HepG2 cell line, Evaluation Procedure (1), GDF-11 inhibition; settings: Method A: GDF-11 10 ng/mL; read-out: IC50 (Luciferase) GDF-11 HepG2
T2 construct: purchased R&D systems 1958-GD-G8/CF
T2 sequence (O95390 299-407): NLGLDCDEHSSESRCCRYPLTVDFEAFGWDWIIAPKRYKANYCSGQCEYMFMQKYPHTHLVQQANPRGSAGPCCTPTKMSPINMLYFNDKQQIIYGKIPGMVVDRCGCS
Method in brief: as §1

SMILES | IC50 (Myostatin [1]) [µM] | IC50 (GDF-11) [µM] | Selectivity (Myostatin [2])
CCCCCCC[C@@H]1NC(=O)[C@H](Cc2ccccc2)N(C)C(=O)[C@H](CCCNC(=N)N)NC(=O)[C@H](Cc2ccc(OCC(=O)O)cc2)NC(=O)[C@H](Cc2cccc(OCC(=O)O)c2)NC(=O)[C@H](C)N(C)C(=O)[C@H]([C@@H](C)CC)NC(=O)[C@H](Cc2ccccc2)N(C)C(=O)[C@H](Cc2ccc(O)cc2)NC(=O)[C@H](Cc2c[nH]c3ncccc23)NC(=O)[C@H](C)NC(=O)CN(CCCC(=O)O)C(=O)CSC[C@H](C(=O)O)NC(=O)[C@H](Cc2ccccc2)N(C)C(=O)[C@H](C)N(C)C1=O [Myostatin_99_v153] ({CH2CO}-[Gly(N(CH2)3COOH)]A[Trp(7-aza)]Y[NMeF]I[NMeA][Phe(3-OCH2COOH)]Y(Carboxymethyl)R[NMeF][X1][NMeA][NMeF][dC]-OH; thioether N-15) | 0.0012 | 0.267 | 222
CC[C@H](C)[C@@H]1NC(=O)[C@H](Cc2ccccc2)N(C)C(=O)[C@H](Cc2ccc(O)cc2)NC(=O)[C@H](Cc2c[nH]c3ccccc23)NC(=O)[C@H](C)NC(=O)CN(CCCC(=O)O)C(=O)CSC[C@H](C(=O)O)NC(=O)[C@H](Cc2ccccc2)N(C)C(=O)[C@H](C)N(C)C(=O)[C@H](CC(C)C)NC(=O)[C@H](Cc2ccccc2)N(C)C(=O)[C@H](CCCNC(=N)N)NC(=O)[C@H](Cc2ccc(C(=O)O)cc2)NC(=O)[C@H](Cc2cccc(OCC(=O)O)c2)NC(=O)CN(C)C1=O [Myostatin_99_v156] ({CH2CO}-[Gly(N(CH2)3COOH)]AWY[NMeF]I[Sar][Phe(3-OCH2COOH)][Phe(4-COOH)]R[NMeF]L[NMeA][NMeF][dC]-OH; thioether N-15) | 0.069 | 4.81 | 70
CC[C@H](C)[C@@H]1NC(=O)[C@H](Cc2ccccc2)N(C)C(=O)[C@H](Cc2ccc(O)cc2)NC(=O)[C@H](Cc2c[nH]c3ccccc23)NC(=O)[C@H](CO)NC(=O)CN(CCCC(=O)O)C(=O)CSC[C@H](C(=O)O)NC(=O)[C@H](Cc2ccccc2)N(C)C(=O)[C@H](C)N(C)C(=O)[C@H](CC(C)C)NC(=O)[C@H](Cc2ccccc2)N(C)C(=O)[C@H](CCCNC(=N)N)NC(=O)[C@H](Cc2ccc(C(=O)O)cc2)NC(=O)[C@H](Cc2cccc(OCC(=O)O)c2)NC(=O)[C@H](C)N(C)C1=O [Myostatin_99_v158] ({CH2CO}-[Gly(N(CH2)3COOH)]SWY[NMeF]I[NMeA][Phe(3-OCH2COOH)][Phe(4-COOH)]R[NMeF]L[NMeA][NMeF][dC]-OH; thioether N-15) | 0.062 | 6.46 | 104
CCCCCCC[C@@H]1NC(=O)[C@H](Cc2ccccc2)N(C)C(=O)[C@H](CCCNC(=N)N)NC(=O)[C@H](Cc2ccc(C(=O)O)cc2)NC(=O)[C@H](Cc2cccc(OCC(=O)O)c2)NC(=O)CN(C)C(=O)[C@H]([C@@H](C)CC)NC(=O)[C@H](Cc2ccccc2)N(C)C(=O)[C@H](Cc2ccc(O)cc2)NC(=O)[C@H](Cc2c[nH]c3ccccc23)NC(=O)[C@H](CO)NC(=O)[C@H](C)NC(=O)CSC[C@H](C(=O)O)NC(=O)[C@H](Cc2ccccc2)N(C)C(=O)[C@H](C)N(C)C1=O [Myostatin_99_v159] ({CH2CO}-ASWY[NMeF]I[Sar][Phe(3-OCH2COOH)][Phe(4-COOH)]R[NMeF][X1][NMeA][NMeF][dC]-OH; thioether N-15) | 0.0039 | 0.404 | 104
CCCCCCC[C@@H]1NC(=O)[C@H](Cc2ccccc2)N(C)C(=O)[C@H](CCCNC(=N)N)NC(=O)[C@H](Cc2ccc(C(=O)O)cc2)NC(=O)[C@H](Cc2cccc(OCC(=O)O)c2)NC(=O)CN(C)C(=O)[C@H]([C@@H](C)CC)NC(=O)[C@H](Cc2ccccc2)N(C)C(=O)[C@H](Cc2ccc(O)cc2)NC(=O)[C@H](Cc2c[nH]c3ncccc23)NC(=O)[C@H](CO)NC(=O)[C@H](C)NC(=O)CSC[C@H](C(=O)O)NC(=O)[C@H](Cc2ccccc2)N(C)C(=O)[C@H](C)N(C)C1=O [Myostatin_99_v160] ({CH2CO}-AS[Trp(7-aza)]Y[NMeF]I[Sar][Phe(3-OCH2COOH)][Phe(4-COOH)]R[NMeF][X1][NMeA][NMeF][dC]-OH; thioether N-15) | 0.0032 | 0.35 | 109
CCCCCCC[C@@H]1NC(=O)[C@H](Cc2ccccc2)N(C)C(=O)[C@H](CCCNC(=N)N)NC(=O)[C@H](Cc2ccc(C(=O)O)cc2)NC(=O)[C@H](Cc2cccc(OCC(=O)O)c2)NC(=O)CN(C)C(=O)[C@H]([C@@H](C)CC)NC(=O)[C@H](Cc2ccccc2)N(C)C(=O)[C@H](Cc2ccc(O)cc2)NC(=O)[C@H](Cc2c[nH]c3ccccc23)NC(=O)[C@H](CO)NC(=O)CN(CCCC(=O)O)C(=O)CSC[C@H](C(=O)O)NC(=O)[C@H](Cc2ccccc2)N(C)C(=O)[C@H](C)N(C)C1=O [Myostatin_99_v161] ({CH2CO}-[Gly(N(CH2)3COOH)]SWY[NMeF]I[Sar][Phe(3-OCH2COOH)][Phe(4-COOH)]R[NMeF][X1][NMeA][NMeF][dC]-OH; thioether N-15) | 0.0082 | 1.24 | 151
CCCCCCC[C@@H]1NC(=O)[C@H](Cc2ccccc2)N(C)C(=O)[C@H](CCCNC(=N)N)NC(=O)[C@H](Cc2ccc(C(=O)O)cc2)NC(=O)[C@H](Cc2cccc(OCC(=O)O)c2)NC(=O)CN(C)C(=O)[C@H]([C@@H](C)CC)NC(=O)[C@H](Cc2ccccc2)N(C)C(=O)[C@H](Cc2ccc(O)cc2)NC(=O)[C@H](Cc2c[nH]c3ncccc23)NC(=O)[C@H](CO)NC(=O)CN(CCCC(=O)O)C(=O)CSC[C@H](C(=O)O)NC(=O)[C@H](Cc2ccccc2)N(C)C(=O)[C@H](C)N(C)C1=O [Myostatin_99_v162] ({CH2CO}-[Gly(N(CH2)3COOH)]S[Trp(7-aza)]Y[NMeF]I[Sar][Phe(3-OCH2COOH)][Phe(4-COOH)]R[NMeF][X1][NMeA][NMeF][dC]-OH; thioether N-15) | 0.0061 | 0.09 | 15

Now from value to compound, other results behind:

IC50 (Myostatin [1]) [µM] | IC50 (GDF-11) [µM] | SMILES | Selectivity (Myostatin [2])
0.0036 | 1 | CCCCCCC[C@@H]1NC(=O)[C@H](Cc2ccccc2)N(C)C(=O)[C@H](CCCNC(=N)N)NC(=O)[C@H](Cc2ccc(C(=O)O)cc2)NC(=O)[C@H](Cc2cccc(OCC(=O)O)c2)NC(=O)[C@H](C)N(C)C(=O)[C@H]([C@@H](C)CC)NC(=O)[C@H](Cc2ccccc2)N(C)C(=O)[C@H](Cc2ccc(O)cc2)NC(=O)[C@H](Cc2c[nH]c3ccccc23)NC(=O)[C@H](CO)NC(=O)CN(CCCC(=O)O)C(=O)CSC[C@H](C(=O)O)NC(=O)[C@H](Cc2ccccc2)N(C)C(=O)[C@H](C)N(C)C1=O [Myostatin_99_v163] ({CH2CO}-[Gly(N(CH2)3COOH)]SWY[NMeF]I[NMeA][Phe(3-OCH2COOH)][Phe(4-COOH)]R[NMeF][X1][NMeA][NMeF][dC]-OH; thioether N-15) | 279
0.0042 | 1.34 | CCCCCCC[C@@H]1NC(=O)[C@H](Cc2ccccc2)N(C)C(=O)[C@H](CCCNC(=N)N)NC(=O)[C@H](Cc2ccc(C(=O)O)cc2)NC(=O)[C@H](Cc2cccc(OCC(=O)O)c2)NC(=O)[C@H](C)N(C)C(=O)[C@H]([C@@H](C)CC)NC(=O)[C@H](Cc2ccccc2)N(C)C(=O)[C@H](Cc2ccc(O)cc2)NC(=O)[C@H](Cc2c[nH]c3ncccc23)NC(=O)[C@H](CO)NC(=O)CN(CCCC(=O)O)C(=O)CSC[C@H](C(=O)O)NC(=O)[C@H](Cc2ccccc2)N(C)C(=O)[C@H](C)N(C)C1=O [Myostatin_99_v164] ({CH2CO}-[Gly(N(CH2)3COOH)]S[Trp(7-aza)]Y[NMeF]I[NMeA][Phe(3-OCH2COOH)][Phe(4-COOH)]R[NMeF][X1][NMeA][NMeF][dC]-OH; thioether N-15) | 320
0.014 | 1.24 | CCCCCCC[C@@H]1NC(=O)[C@H](Cc2ccccc2)N(C)C(=O)[C@H](CCCNC(=N)N)NC(=O)[C@H](Cc2ccc(C(=O)O)cc2)NC(=O)[C@H](Cc2cccc(OCC(=O)O)c2)NC(=O)CN(C)C(=O)[C@H]([C@@H](C)CC)NC(=O)[C@H](Cc2ccccc2)N(C)C(=O)[C@H](Cc2ccc(O)cc2)NC(=O)[C@H](Cc2c[nH]c3ccccc23)NC(=O)[C@H](C)NC(=O)CN(CCCC(=O)O)C(=O)CSC[C@H](C(=O)O)NC(=O)[C@H](Cc2ccccc2)N(C)C(=O)[C@H](C)N(C)C1=O [Myostatin_99_v165] ({CH2CO}-[Gly(N(CH2)3COOH)]AWY[NMeF]I[Sar][Phe(3-OCH2COOH)][Phe(4-COOH)]R[NMeF][X1][NMeA][NMeF][dC]-OH; thioether N-15) | 89
0.0035 | 0.951 | CCCCCCC[C@@H]1NC(=O)[C@H](Cc2ccccc2)N(C)C(=O)[C@H](CCCNC(=N)N)NC(=O)[C@H](Cc2ccc(C(=O)O)cc2)NC(=O)[C@H](Cc2cccc(OCC(=O)O)c2)NC(=O)CN(C)C(=O)[C@H]([C@@H](C)CC)NC(=O)[C@H](Cc2ccccc2)N(C)C(=O)[C@H](Cc2ccc(O)cc2)NC(=O)[C@H](Cc2c[nH]c3ncccc23)NC(=O)[C@H](C)NC(=O)CN(CCCC(=O)O)C(=O)CSC[C@H](C(=O)O)NC(=O)[C@H](Cc2ccccc2)N(C)C(=O)[C@H](C)N(C)C1=O [Myostatin_99_v166] ({CH2CO}-[Gly(N(CH2)3COOH)]A[Trp(7-aza)]Y[NMeF]I[Sar][Phe(3-OCH2COOH)][Phe(4-COOH)]R[NMeF][X1][NMeA][NMeF][dC]-OH; thioether N-15) | 272
